Reference: ChEMBL document CHEMBL1132934, “Multivariate data analysis using D-optimal designs, partial least squares, and response surface modeling: A directional approach for the analysis of farnesyltransferase inhibitors” (J Med Chem, 2000)
Activity calls are given as the source filed them. The calls are words filed in the database; no cut-off is given here.

Columns and labels:
[1] = molecular target: T1, Protein farnesyltransferase (Homo sapiens, UniProt P49354+P49356); assay: Inhibition of farnesyltransferase by Ras/SPA assay; type: protein-complex assay
[2] = Binding affinity against Ras protein
[3] = test system: HCT-116; assay: (§1) […] inhibition of cellular activity in HCT116 colony formation assay; type: functional, Homo sapiens
[4] = molecular target: T1, Protein farnesyltransferase; assay: Inhibition of Farnesyltransferase; type: protein-complex assay
[5] = test system: HCT-116; assay: as §1; type: functional; details: Homo sapiens
[6] = Binding affinity against Ras SPA enzyme
[7] = test system: HCT-116; assay: […] inhibition of cellular activity in HCT116 colony formation assay; AI means almost inactive; type: functional; details: Homo sapiens
[8] = test system: HCT-116; assay: […] inhibition of cellular activity in HCT116 colony formation assay; CA means cytostatic activity; type: functional; details: Homo sapiens

COc1ccccc1CC(=O)N1C[C@H]2[C@@]3(c4ccccc4)CC[C@](O)(c4ccccc43)[C@@]2(C(=O)O)C1
Ki [1]: 250 nM

C=C(C(=O)N1C[C@H]2[C@@]3(c4ccc5c(c4)CCO5)CC[C@H](c4ccccc43)[C@@]2(C(=O)O)C1)c1ccccc1OC
Ki [1]: 420 nM

C=C(C(=O)N1C[C@H]2[C@@]3(c4ccc(OCC(=O)O)cc4)CC[C@H](c4ccccc43)[C@@]2(C(=O)O)C1)c1ccccc1OC
Ki [1]: 25500 nM

O=C(Cc1ccccc1OCc1ccccc1)N1C[C@H]2[C@@]3(c4ccccc4)CC[C@H](c4ccccc43)[C@@]2(C(=O)O)C1
Ki [2]: 32000 nM | Ki [1]: 32000 nM

C=C(C(=O)N1C[C@H]2[C@@]3(c4ccc(Br)cc4)CC[C@H](c4ccccc43)[C@@]2(C(=O)O)C1)c1ccccc1OC
IC50 [3]: 59 nM

COc1ccccc1CC(=O)N1C[C@H]2[C@@]3(c4ccccc4)CC[C@H](c4ccccc43)[C@@]2(C(=O)NCC(=O)O)C1
Ki [1]: 738 nM

COc1ccccc1CC(=O)N1C[C@H]2[C@@]3(c4ccccc4)CC[C@H](c4ccccc43)[C@@]2(C(=O)O)C1 (racemic)
IC50 [4]: 200 nM | IC50 [5]: > 10000 nM

COCCCC(=O)N1C[C@H]2[C@@]3(c4ccccc4)CC[C@H](c4ccccc43)[C@@]2(C(=O)O)C1
Ki [6]: 100000 nM

C=C(C(=O)N1C[C@H]2[C@@]3(c4ccccc4)CC[C@H](c4ccccc43)[C@@]2(C(=O)O)C1)c1ccccc1OC (racemic)
IC50 [5]: 720 nM | AI [7]: inactive | Ki [1]: 25 nM

COc1ccccc1CC(=O)N1C[C@H]2[C@@]3(c4ccccc4)CC[C@H](c4c(O)cccc43)[C@@]2(C(=O)O)C1
Ki [1]: 50000 nM

COc1ccccc1CC(=O)N1C[C@H]2[C@@]3(c4ccccc4)CC[C@H](c4ccccc43)[C@@]2(C(=O)O)C1
Ki [1]: 140 nM

COc1ccccc1CC(=O)N1C[C@H]2[C@@]3(c4ccccc4)CC[C@H](c4ccccc43)[C@@]2(C(=O)NN)C1
Ki [6]: 2450 nM

CONC(=O)[C@]12CN(C(=O)Cc3ccccc3OC)C[C@H]1[C@@]1(c3ccccc3)CC[C@@H]2c2ccccc21
Ki [1]: 420 nM

C=C(C(=O)N1C[C@H]2[C@@]3(c4ccc(C)cc4)CC[C@H](c4ccccc43)[C@@]2(C(=O)O)C1)c1ccccc1OC (racemic)
IC50 [4]: 8 nM | IC50 [5]: 45 nM | CA [8]: cytostatic activity

COc1ccccc1CC(=O)N1C[C@H]2[C@@]3(c4ccccc4)CC[C@H](c4ccccc43)[C@@]2(C(=O)N[C@H](C)c2ccccc2)C1
Ki [6]: 2080 nM

COc1ccccc1CC(=O)N1C[C@H]2[C@@]3(c4ccccc4)CC[C@H](c4ccccc43)[C@@]2(NC(=O)OCc2ccccc2)C1
Ki [6]: 100000 nM

COc1ccccc1CC(=O)N1C[C@@H]2[C@@H]3CC[C@@](c4ccccc4)(c4ccccc43)[C@@H]2C1
Ki [1]: 40000 nM
